SMILES strings stand for the structures. “Also recorded” adds a separate entry of the source.

The results in this text go back to US12616203B2, “Use of 3-isoxazolidinones compounds as selective herbicides” (FMC Corporation, priority 2014, dated 2026).

Assay [1] relates to weeds; sweet corn, yellow corn, and sorghum. The experiment in a line: Ex31 PRE greenhouse. Particulars: weed and rate in the words. Type of assay: in vivo. The text has this:
Flats were watered and fertilized routinely after treatment application.

In a further assay the test system is weeds; Wheat and canola. The experiment in a line: Ex28 PRE greenhouse. The class given is in vivo. Particulars: 28 DAT, rate in the words. From the text:
The tested weeds in this study are redroot pigweed (Amaranth retroflexus, AMARE), Italian ryegrass (Lolium perenne. multiflorum, LOLMU), wild mustard (Sinapis arvensis, SINAR), annual bluegrass (Poa annua, POAAN), wild oat (Avena fatua, AVEFA), blackgrass (Alopecurus myosuroides, ALOMY), common lambsquarters (Chenopodium album, CHEAL), littleseed canarygrass (Phalaris minor, PHAMI), common chickweed (Stellaria media, STEME), corn poppy (Papaver rhoeas, PAPRH), and silky windgrass (Apera spica-venti, APESV). The tested crops are wheat and canola.
Additionally, 2,4 DC was applied alone at 400 g ai/ha.
Treatments were applied before the emergence of redroot pigweed, Italian ryegrass, wild oat, blackgrass, littleseed canarygrass, common chickweed, common lambsquarters, corn poppy, wild mustard, annual bluegrass, silky windgrass, canola, and wheat. […] Flats were watered and fertilized routinely after treatment application.

The next assay has as its system Quackgrass. As to the kind of experiment: Ex32 PRE 2,4-DC + pyroxasulfone + sulfentrazone, % control 28 DAT, Colby. Type of assay: in vivo, Elymus repens. From the text: Treatments were applied at the time of planting to Italian ryegrass, green foxtail, littleseed canarygrass, wild oat, quackgrass, dandelion, common chickweed, white clover, yellow nutsedge, redroot pigweed, field bindweed, canola, and wheat. […] Flats were watered and fertilized routinely after treatment application.

For another assay, the system named is weeds. As to the kind of experiment: Ex18 PRE greenhouse. To be noted: weed and rate in the words. The class given is in vivo.
Another assay has as its system Italian ryegrass (IR). As to the kind of experiment: Ex2 PRE greenhouse, % control. To be noted: 28 DAT, g ai/ha by row: r12-40 2,4-DC 31.25/62.5/125/250/375 (3 rows each) + metazachlor 250/500/750 (cycling). Type of assay: in vivo, Lolium perenne. multiflorum. Here is the method:
(§1) Test compositions containing 2,4 DC Example 1B and metazachlor (Butisan® S, 43.1% active ingredient, BASF) and mixtures of 2-(2,4-dichlorophenyl)methyl-4,4-dimethyl-3-isoxazolidinone and metazachlor, were diluted with water to provide the appropriate test rate concentrations.
(§2) The test crops were wheat and canola (Brassica napus), the test weeds were Italian ryegrass (IR) (Lolium perenne. multiflorum), annual bluegrass (AB) (Poa annua), common lambsquarters (CL) (Chenopodium album), littleseed canarygrass (LC) (Phalaris minor), common chickweed (CC) (Stellaria media), and corn poppy (CP) (Papaver rhoeas).
For pre-emergence testing, four disposable fiber flats (6″ by 10″) for each rate of application of each herbicide solution were filled with top soil, to which seeds of each species were planted in furrows made by a template pressed on the top of the soil. The furrows were covered with soil after planting the seed and were watered well before application of the test compounds.
Fiber flats designated for treatment were placed in a spray chamber having a static platform and a movable sprayer and height of the spray nozzle was 10.5 inches above the soil level. Once the sprayer was calibrated using water for spray volume of 30 gallons per acre, flats were sprayed with sprayer at a speed to receive a coverage equivalent of 30 gallons per acre. The application rates are those shown in Table 1 below for the individual herbicidal solutions and the herbicide compositions of the present invention. The pre-emergence flats were immediately placed in the greenhouse and watered lightly after treatment. Thereafter they were regularly watered and fertilized for the duration of the test.
The control of weeds was evaluated in each experimental test at 21 days after treatment (DAT) for corn poppy and wheat and 28 DAT for all other species. The results, shown as an average of the replications were compared with results observed in untreated control flats in the same tests.
(§3) Percent control was determined by a method similar to the 0 to 100 rating system disclosed in “Research Methods in Weed Science,” 2nd ed., B. Truelove, Ed.; Southern Weed Science Society; Auburn University, Auburn, Ala., 1977.

The test system of a further assay is sedges. As to the kind of experiment: Ex26 PRE greenhouse. The class given is in vivo. To be noted: 28 DAT, weed and rate in the words. From the text: Treatments were applied at the time of planting to yellow nutsedge, purple nutsedge, and benghal dayflower. […] Flats were watered and fertilized routinely after treatment application.
The test system of another assay is Common lambsquarters. As to the kind of experiment: Ex13 PRE 2,4-DC + diflufenican, % control 28 DAT, Colby. Type of assay: in vivo, Chenopodium album. The text has this:
Pyroxasulfone (KIH-485, 85%) at 74.3 g ai/ha, pendimethalin (Prowl 3.3EC, 37.4%) at 1200 g ai/ha, or a premix of chlorsulfuron plus metsulfuron-methyl (Report Extra, 75%) at 15.8 g ai/ha were applied as commercial standards. […] Treatments were replicated 3 times and flats were watered after planting before the treatment and lightly watered after treatment application. Thereafter flats were watered and fertilized routinely.

For a further assay, the system named is common chickweed (CC). The experiment in a line: Ex2 PRE greenhouse, % control. Type of assay: in vivo, Stellaria media. To be noted: 28 DAT, g ai/ha by row: r12-40 2,4-DC 31.25/62.5/125/250/375 (3 rows each) + metazachlor 250/500/750 (cycling), r42-46 2,4-DC 31.25/62.5/125/250/375, r47-49 metazachlor 250/500/750. Here is the method:
as §1, §2
For pre-emergence testing, four disposable fiber flats (6″ by 10″) for each rate of application of each herbicide solution were filled with top soil, to which seeds of each species were planted in furrows made by a template pressed on the top of the soil. The furrows were covered with soil after planting the seed and were watered well before application of the test compounds. […]
The control of weeds was evaluated in each experimental test at 21 days after treatment (DAT) for corn poppy and wheat and 28 DAT for all other species. […]
as §3

A further assay deals with weeds; canola, and wheat. The experiment in a line: Ex39 PRE greenhouse. Type of assay: in vivo. Particulars: weed and rate in the words. The text has this:
Thereafter flats were watered and fertilized routinely.

For another assay, the system named is common chickweed. As to the kind of experiment: Ex14 POST 2,4-DC + bromoxynil, % control 28 DAT, Colby. Type of assay: in vivo, Stellaria media. The text has this: The study further assessed post crop safety on Wheat and Barley.
Nonionic surfactant at 0.5% (v/v) was included with commercial standards application. No adjuvant was applied with any other treatments. All plant species were direct seeded into 3″ plastic pots using metro-mix as growth media. At treatment application common lambsquarters was 1.75″, common chickweed was 2″, wild mustard was 2.25″, wild oat was 5.5″, wild buckwheat was 2-5″, Italian ryegrass was 2-3″, wheat was 5.5″, and barley was 4.5″ in height. Plants were watered well before application and not watered 24 h after application. Plants were watered and fertilized routinely after treatment application. Each treatment was replicated four times.

On to `CC1(C)CON(Cc2ccc(Cl)cc2Cl)C1=O` [2,4-DC, 2-(2,4-dichlorophenyl)methyl-4,4-dimethyl-3-isoxazolidinone], for which the “weed control in words” value is recorded as “alone did not control any weeds except barnyardgrass” in assay [1]; “controlled goosegrass at ≥170 g ai/ha” in the assay with weeds; “alone did not provide control of sedges at any rate except benghal dayflower at 400 g” with sedges; “alone at ≥50 g ai/ha controlled (≥85%) Canada thistle, dandelion, or common chickweed” with weeds; canola, and wheat. For the same compound, the “weed control / crop safety in words” value with weeds; Wheat and canola is “alone provided control of pigweed and corn poppy at 400 g, Italian ryegrass at ≥200 g, blackgrass and lambsquarters at 400 g, and chickweed at all rates; also recorded: caused greater than 10% injury to canola at all rates and 2,4 DC was safe on wheat up to 200 g ai/ha”. Besides, the X was found to be 0% with Quackgrass (2,4-DC alone 50 g ai/ha); 7% in the assay with Quackgrass (2,4-DC alone 100 g ai/ha); 10% in the assay on Quackgrass (2,4-DC alone 200 g ai/ha); 15% with Common lambsquarters (2,4-DC alone 125 g ai/ha); 26% with Common lambsquarters (2,4-DC alone 170 g ai/ha); 58% with Common lambsquarters (2,4-DC alone 210 g ai/ha). For the same compound, the X with Common lambsquarters (2,4-DC alone 250 g ai/ha) was 60%; in the assay on common chickweed (2,4-DC alone 125 g ai/ha), 9%; with common chickweed (2,4-DC alone 170 g ai/ha) it was 7%; in the assay with common chickweed (2,4-DC alone 210 g ai/ha), 14%; with common chickweed (2,4-DC alone 250 g ai/ha), 28%. Moreover, the “% Control IR” value in the assay with Italian ryegrass (IR) (r42-46 2,4-DC 31.25/62.5/125/250/375, r47-49 metazachlor 250/500/750, 31.25 g ai/ha) amounted to 57%; in the assay with Italian ryegrass (IR) (r42-46 2,4-DC 31.25/62.5/125/250/375, r47-49 metazachlor 250/500/750, 62.5 g ai/ha), 68%; in the assay on Italian ryegrass (IR) (r42-46 2,4-DC 31.25/62.5/125/250/375, r47-49 metazachlor 250/500/750, 125 g ai/ha), 85%; in the assay on Italian ryegrass (IR) (r42-46 2,4-DC 31.25/62.5/125/250/375, r47-49 metazachlor 250/500/750, 250 g ai/ha), 98%; in the assay on Italian ryegrass (IR) (r42-46 2,4-DC 31.25/62.5/125/250/375, r47-49 metazachlor 250/500/750, 375 g ai/ha), 99%. The “% Control CC” value in the assay on common chickweed (CC) was determined as 100%.
